Assays:
Format in all cases: cell-based, Sprague-Dawley (SD) rats
[1] = test system: caspase 3; assay: Caspase 3 activity ELISA in LPS-treated NSCs; conditions: LPS (100 ng/ml) exposure, Day 7, vs LPS-treated NSCs without treatment, p<0.05
[2] = test system: LPS-treated NSCs; assay: TUNEL assay of LPS-induced apoptosis in NSCs; conditions: LPS-treated NSCs, vs LPS-treated NSCs without treatment
[3] = test system: TNF-α; assay: TNF-α ELISA in LPS-treated NSCs; conditions: vs only LPS-treated NSCs, IM 3 µM, p<0.05
[4] = test system: NSCs; assay: Immunofluorescent assay of MAP-2-positive cells in differentiating NSCs; conditions: Day 7 culture of IM-treated NSCs vs non IM-treated NSCs, p<0.05
[5] = test system: NSCs; assay: MTT cell viability assay of IM-treated NSCs; conditions: 3 µM IM, Day 3, Day 5 and Day 7 cultures, p<0.05
Method: All animals used were treated in accordance with the Animal Care and Use Committee guideline at Taipei Veterans General Hospital. The protocol of the present study was also approved by the committee. Adult Sprague-Dawley (SD) rats (8 weeks old, 250 g) were anesthetized with intraperitoneal phenobarbital (Sigma, USA), and the location of their brains was mapped. Then, the brain was surgically separated from the hippocampus region. In brief, tissues from the hippocampus of adult rats were dissociated and incubated in Hank's balanced salt solution (HBSS) containing collagenase (78 units/ml) and hyaluronidase (38 units/ml) for 10 minutes at 37°C. […] Viable cells were counted by trypan blue exclusion and plated as 5000 cells/200 µL per well in 96-well plates (Coming Inc, Acton, MA, USA) with no substrate pretreatment. […]
IM was purchased from Sigma Chem. Co., St Louis, MO, USA. […] The amount of MTT fromazon product was determined using a microplate reader and the absorbance was measured at 560 nm (SpectraMax 250, Molecular Devices, Sunnyvale, CA, USA). […] The activities of caspases 8 and 3 (Medical and Biological Laboratories Co., Ltd., Nagoya, Japan), and the concentration of IL-6, IL-1 and TNF-α (Pharmingen, San Diego, CA, USA) were determined by ELISA kits and quantified by reading at 490 nm (MRX; Dynatech Laboratories, Chantilly, VA, USA). Each individual sample was analyzed in triplicate.

[6] = test system: caspase 8; assay: Caspase 8 activity ELISA in LPS-treated NSCs; conditions: LPS (100 ng/ml) exposure, Day 7, vs LPS-treated NSCs without treatment, p<0.05
[7] = test system: LPS-treated NSCs; assay: MTT cell survival of LPS-treated NSCs; conditions: vs the only LPS-treated NSCs; LPS 100 ng/ml

CN(C)CCCN1c2ccccc2CCc2ccccc21 [IM, imipramine]
apoptotic activities of caspase 3 [1]: significantly decreased | LPS-induced apoptosis (TUNEL assay) [2]: protected against LPS-induced apoptosis | TNF-α production in the LPS-treated NSCs [3]: effectively reduces | percentages of MAP-2-positive cells [4]: significantly increased | cell survival (MTT assay) [5]: significantly increased | apoptotic activities of caspase 8 [6]: significantly decreased | cell survival rates in the LPS-treated NSCs [7]: significantly increases

Source: EP2077092A2, “System and Methods for Screening or Analyzing Targets” (Taipei Veterans General Hospital, priority 2007, dated 2009)
